Each compound was assayed on MDA-MB-231 (assay: Growth inhibition of human MDA-MB-231 cells incubated for 48 hrs by sulforhodamine B assay). Conditions: MDA-MB-231, 48 h, read-out: pGI50 (converted).
Format: functional, cell-based
With `O=C(Nc1cccc(-n2cc(-c3ccncc3)c(-c3cc(O)cc(Cl)c3)n2)c1)c1ccc(N2CCOCC2)c(C(F)(F)F)c1` the GI50 was 0.324 µM.

Same assay, conditions: MDA-MB-231, 48 h, read-out: pLC50 (the source's name) (converted)
`O=C(Nc1cccc(-n2cc(-c3ccncc3)c(-c3cc(O)cc(Cl)c3)n2)c1)c1ccc(N2CCOCC2)c(C(F)(F)F)c1` was tested, and the CC50 was 26.9 µM.

Same assay, conditions: MDA-MB-231, 48 h, read-out: pTGI (converted)
Compound `O=C(Nc1cccc(-n2cc(-c3ccncc3)c(-c3cc(O)cc(Cl)c3)n2)c1)c1ccc(N2CCOCC2)c(C(F)(F)F)c1` has a TGI of 1.66 µM.

What follows are compounds tested on NCI-H322M (assay: Growth inhibition of human NCI-H322M cells assessed as cell growth at 0.01 uM incubated for 48 hrs by sulforhodamine B assay relative to control). Conditions: read-out: Activity.
Format: functional
For `O=C(Nc1cccc(-n2cc(-c3ccncc3)c(-c3cc(O)cc(Cl)c3)n2)c1)c1ccc(N2CCOCC2)c(C(F)(F)F)c1`, the growth at 0.01 µM was 56%.

The compounds below were run on NCI-H226 (assay: Growth inhibition of human NCI-H226 cells assessed as cell growth at 100 uM incubated for 48 hrs by sulforhodamine B assay relative to control). Conditions: NCI-H226, 48 h, read-out: Activity.
Format: functional
Work on `O=C(Nc1cccc(-n2cc(-c3ccncc3)c(-c3cc(O)cc(Cl)c3)n2)c1)c1ccc(N2CCOCC2)c(C(F)(F)F)c1` yielded a growth at 100 µM of 27%.

Each compound was assayed on KM12 (assay: Growth inhibition of human KM12 cells assessed as cell growth at 0.1 uM incubated for 48 hrs by sulforhodamine B assay relative to control). Conditions: KM12, 48 h, read-out: Activity.
Format: functional
For `O=C(Nc1cccc(-n2cc(-c3ccncc3)c(-c3cc(O)cc(Cl)c3)n2)c1)c1ccc(N2CCOCC2)c(C(F)(F)F)c1`, the growth at 0.1 µM was 105%.

The compounds below were run on MDA-MB-231 (assay: Growth inhibition of human MDA-MB-231 cells assessed as cell growth at 100 uM incubated for 48 hrs by sulforhodamine B assay relative to control). Conditions: MDA-MB-231, 48 h, read-out: Activity.
Format: functional
Work on `O=C(Nc1cccc(-n2cc(-c3ccncc3)c(-c3cc(O)cc(Cl)c3)n2)c1)c1ccc(N2CCOCC2)c(C(F)(F)F)c1` yielded a growth at 100 µM of -58%.

What follows are compounds tested on SNB-19 (assay: Growth inhibition of human SNB19 cells incubated for 48 hrs by sulforhodamine B assay). Conditions: SNB-19, 48 h, read-out: GI50.
Format: functional, cell-based
In the case of `O=C(Nc1cccc(-n2cc(-c3ccncc3)c(-c3cc(O)cc(Cl)c3)n2)c1)c1ccc(N2CCOCC2)c(C(F)(F)F)c1`, the GI50 is reported as 3.33 µM.

Same assay, conditions: SNB-19, 48 h, read-out: LC50 (the source's name)
Compound `O=C(Nc1cccc(-n2cc(-c3ccncc3)c(-c3cc(O)cc(Cl)c3)n2)c1)c1ccc(N2CCOCC2)c(C(F)(F)F)c1` has a CC50 of over 100 µM.

Same assay, conditions: SNB-19, 48 h, read-out: TGI
In the case of `O=C(Nc1cccc(-n2cc(-c3ccncc3)c(-c3cc(O)cc(Cl)c3)n2)c1)c1ccc(N2CCOCC2)c(C(F)(F)F)c1`, the TGI is reported as 33.8 µM.

Same assay, conditions: SNB-19, 48 h, read-out: pGI50 (converted)
For `O=C(Nc1cccc(-n2cc(-c3ccncc3)c(-c3cc(O)cc(Cl)c3)n2)c1)c1ccc(N2CCOCC2)c(C(F)(F)F)c1`, the GI50 was 3.31 µM.

Same assay, conditions: SNB-19, 48 h, read-out: pLC50 (the source's name) (converted)
For `O=C(Nc1cccc(-n2cc(-c3ccncc3)c(-c3cc(O)cc(Cl)c3)n2)c1)c1ccc(N2CCOCC2)c(C(F)(F)F)c1`, the CC50 was over 100 µM.

Same assay, conditions: SNB-19, 48 h, read-out: pTGI (converted)
`O=C(Nc1cccc(-n2cc(-c3ccncc3)c(-c3cc(O)cc(Cl)c3)n2)c1)c1ccc(N2CCOCC2)c(C(F)(F)F)c1` was tested, and the TGI was 33.9 µM.

Each compound was assayed on KM12 (assay: Growth inhibition of human KM12 cells assessed as cell growth at 0.01 uM incubated for 48 hrs by sulforhodamine B assay relative to control). Conditions: KM12, 48 h, read-out: Activity.
Format: functional
Compound `O=C(Nc1cccc(-n2cc(-c3ccncc3)c(-c3cc(O)cc(Cl)c3)n2)c1)c1ccc(N2CCOCC2)c(C(F)(F)F)c1` has a growth at 0.01 µM of 105%.

Each compound was assayed on M14 (assay: Growth inhibition of human M14 cells assessed as cell growth at 0.1 uM incubated for 48 hrs by sulforhodamine B assay relative to control). Conditions: M14, 48 h, read-out: Activity.
Format: functional
Compound `O=C(Nc1cccc(-n2cc(-c3ccncc3)c(-c3cc(O)cc(Cl)c3)n2)c1)c1ccc(N2CCOCC2)c(C(F)(F)F)c1` has a growth at 0.1 µM of 91%.

The compounds below were run on CCRF-CEM (assay: Growth inhibition of human CCRF-CEM cells assessed as cell growth at 1 uM incubated for 48 hrs by sulforhodamine B assay relative to control). Conditions: read-out: Activity.
Format: functional
Compound `O=C(Nc1cccc(-n2cc(-c3ccncc3)c(-c3cc(O)cc(Cl)c3)n2)c1)c1ccc(N2CCOCC2)c(C(F)(F)F)c1` has a growth at 1 µM of 34%.

The compounds below were run on HCC 2998 (assay: Growth inhibition of human HCC2998 cells incubated for 48 hrs by sulforhodamine B assay). Conditions: HCC 2998, 48 h, read-out: GI50.
Format: functional, cell-based
Work on `O=C(Nc1cccc(-n2cc(-c3ccncc3)c(-c3cc(O)cc(Cl)c3)n2)c1)c1ccc(N2CCOCC2)c(C(F)(F)F)c1` yielded a GI50 of 1.52 µM.

Same assay, conditions: HCC 2998, 48 h, read-out: LC50 (the source's name)
In the case of `O=C(Nc1cccc(-n2cc(-c3ccncc3)c(-c3cc(O)cc(Cl)c3)n2)c1)c1ccc(N2CCOCC2)c(C(F)(F)F)c1`, the CC50 is reported as over 100 µM.

Same assay, conditions: HCC 2998, 48 h, read-out: TGI
For `O=C(Nc1cccc(-n2cc(-c3ccncc3)c(-c3cc(O)cc(Cl)c3)n2)c1)c1ccc(N2CCOCC2)c(C(F)(F)F)c1`, the TGI was 79.5 µM.

Same assay, conditions: HCC 2998, 48 h, read-out: pGI50 (converted)
`O=C(Nc1cccc(-n2cc(-c3ccncc3)c(-c3cc(O)cc(Cl)c3)n2)c1)c1ccc(N2CCOCC2)c(C(F)(F)F)c1` showed a GI50 of 1.82 µM.

Same assay, conditions: HCC 2998, 48 h, read-out: pLC50 (the source's name) (converted)
For `O=C(Nc1cccc(-n2cc(-c3ccncc3)c(-c3cc(O)cc(Cl)c3)n2)c1)c1ccc(N2CCOCC2)c(C(F)(F)F)c1`, the CC50 was over 100 µM.

Same assay, conditions: HCC 2998, 48 h, read-out: pTGI (converted)
With `O=C(Nc1cccc(-n2cc(-c3ccncc3)c(-c3cc(O)cc(Cl)c3)n2)c1)c1ccc(N2CCOCC2)c(C(F)(F)F)c1` the TGI was 7.94 µM.

The compounds below were run on NCI-H522 (assay: Growth inhibition of human NCI-H522 cells assessed as cell growth at 0.1 uM incubated for 48 hrs by sulforhodamine B assay relative to control). Conditions: NCI-H522, 48 h, read-out: Activity.
Format: functional
In the case of `O=C(Nc1cccc(-n2cc(-c3ccncc3)c(-c3cc(O)cc(Cl)c3)n2)c1)c1ccc(N2CCOCC2)c(C(F)(F)F)c1`, the growth at 0.1 µM is reported as 90%.

These compounds were tested on NCI/ADR-RES (assay: Growth inhibition of human NCI/ADR-RES cells assessed as cell growth at 1 uM incubated for 48 hrs by sulforhodamine B assay relative to control). Conditions: read-out: Activity.
Format: functional
With `O=C(Nc1cccc(-n2cc(-c3ccncc3)c(-c3cc(O)cc(Cl)c3)n2)c1)c1ccc(N2CCOCC2)c(C(F)(F)F)c1` the growth at 1 µM was 79%.

Each compound was assayed on UACC-257 (assay: Growth inhibition of human UACC257 cells incubated for 48 hrs by sulforhodamine B assay). Conditions: UACC-257, 48 h, read-out: GI50.
Format: functional, cell-based
With `O=C(Nc1cccc(-n2cc(-c3ccncc3)c(-c3cc(O)cc(Cl)c3)n2)c1)c1ccc(N2CCOCC2)c(C(F)(F)F)c1` the GI50 was 2.36 µM.

Same assay, conditions: UACC-257, 48 h, read-out: LC50 (the source's name)
`O=C(Nc1cccc(-n2cc(-c3ccncc3)c(-c3cc(O)cc(Cl)c3)n2)c1)c1ccc(N2CCOCC2)c(C(F)(F)F)c1` was tested, and the CC50 was over 100 µM.

Same assay, conditions: UACC-257, 48 h, read-out: TGI
`O=C(Nc1cccc(-n2cc(-c3ccncc3)c(-c3cc(O)cc(Cl)c3)n2)c1)c1ccc(N2CCOCC2)c(C(F)(F)F)c1` gave a TGI of 84 µM.

Same assay, conditions: UACC-257, 48 h, read-out: pGI50 (converted)
In the case of `O=C(Nc1cccc(-n2cc(-c3ccncc3)c(-c3cc(O)cc(Cl)c3)n2)c1)c1ccc(N2CCOCC2)c(C(F)(F)F)c1`, the GI50 is reported as 2.34 µM.

Same assay, conditions: UACC-257, 48 h, read-out: pLC50 (the source's name) (converted)
`O=C(Nc1cccc(-n2cc(-c3ccncc3)c(-c3cc(O)cc(Cl)c3)n2)c1)c1ccc(N2CCOCC2)c(C(F)(F)F)c1` gave a CC50 of over 100 µM.

Same assay, conditions: UACC-257, 48 h, read-out: pTGI (converted)
For `O=C(Nc1cccc(-n2cc(-c3ccncc3)c(-c3cc(O)cc(Cl)c3)n2)c1)c1ccc(N2CCOCC2)c(C(F)(F)F)c1`, the TGI was 8.51 µM.
